The source of these data is the METLIN SMRT retention time set (Domingo-Almenara et al. 2019).

This data set in a line: gradient 5% acetonitrile 3 min, to 50% in 2 min, to 85% in 15 min, held 3 min, 100 µL/min. The note with it: column: Zorbax Extend-C18 2.1 x 50 mm; eluents: water / acetonitrile, 0.1% formic acid. A digest of the protocol: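 Values are retention times taken from adduct peaks that software picked and an analyst inspected. The pure standards were run as mixtures of ~100 molecules on HPLC linked to a quadrupole time-of-flight mass spectrometer, in positive and negative ionization mode. A Zorbax Extend-C18 column (2.1 × 50 mm, 1.8 μm) was used at 100 μL/min with water and acetonitrile, each including 0.1% formic acid.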
In the case of `Cc1ccc2c(=O)c3c([nH]c2c1C)CCN(CC(=O)Nc1ccc(Cl)c(F)c1)C3`, the RP-LC retention time was found to be 662 s.
In turn, `Cc1noc(C)c1-c1ccc(S(=O)(=O)N2CCC3(CC2)OCCO3)cc1` showed an RP-LC retention time of 853 s.
In turn, `Cc1sc2ncnc(SCC(=O)Nc3nc(-c4ccccc4)ns3)c2c1C` came in with an RP-LC retention time of 1080 s.
For `O=C(Nc1ccccn1)c1csc2nc(-c3ccc(F)cc3)cn12`, the RP-LC retention time turned out to be 808 s.
In the case of `CCc1nc(-n2cccc2)sc1C(=O)Nc1cc(C)ccc1F`, the RP-LC retention time was determined as 1180 s.
The figure for `COCCCNC(=O)c1nc2cccnc2n(CC(C)C)c1=O` is 728 s; for `CC(C)n1c(=O)sc2cc(S(=O)(=O)N3CCC(C(=O)Nc4cccc(F)c4)CC3)ccc21` it is 1010 s; for `CN(C)c1ccc(-c2nc3cnccn3c2NC2CCCC2)cc1` it is 764 s.
The result for `CCc1nc2cc(-c3noc(Cc4cccc(C(F)(F)F)c4)n3)ccc2o1` reads 1170 s.
For `CNC(=O)c1cc(-c2ccc(OC)cc2)n(C)c1C`, the RP-LC retention time is 783 s.
The figure for `O=C(NC1CC1)c1[nH]c2ccccc2c1N1CCCC1=O` is 653 s; for `Cc1ccccc1C1CCCN1C(=O)c1ccnn1C` (stereo not given) it is 768 s.
The result for `O=C(CC(F)(F)F)NCCc1noc(C2CC2)n1` reads 671 s.
The result for `CCOc1ccc(S(=O)(=O)N2CCCC(C(=O)NC)C2)cc1C` (stereo not given) reads 788 s; that for `Cc1ccc(N2CCC(NC(=O)Cc3ccccc3C)C2=O)cc1C` (stereo not given), 893 s; that for `O=c1n(Cc2ccc(F)cc2)nc2c(S(=O)(=O)N3CCN(c4ccc(F)cc4)CC3)cccn12`, 991 s.
Compound `O=C(Nc1nnc(-c2ccsc2)o1)C1CC(=O)N(c2ccc(Cl)cc2)C1` (stereo not given) displayed an RP-LC retention time of 718 s.
The result for `Cc1noc(C)c1Cc1c(C(=O)NCCc2noc(C3CC3)n2)noc1C` reads 774 s.
The compound `COc1ccc(S(=O)(=O)NC2CCc3nnc(C)n3CC2)cc1Cl` (stereo not given) showed an RP-LC retention time of 641 s.
Take `Cc1ccc(C(CC(=O)NCCCN2CCCC2=O)N2Cc3ccccc3C2=O)cc1` (stereo not given): the RP-LC retention time turned out to be 685 s.
The result for `CCc1cccc(C)c1Nc1c(-c2ccc(SC)cc2)nc2nc(C)cc(C)n12` reads 867 s; that for `COc1cccc(-n2ccc(=O)c(-c3nc(-c4ccc(OC)c(OC)c4)no3)n2)c1`, 817 s; that for `CCCn1cnc2cc(-c3noc(C4CC(=O)N(c5ccccc5)C4)n3)ccc21` (stereo not given), 711 s.
Turning to `COc1cccc(CNC2CCN(c3ccc(C(=O)NC4CC4)cn3)C2)c1OC` (stereo not given), the RP-LC retention time was 562 s.
In turn, `Cc1ccc(Cn2c(CN3CCC(C(=O)NCc4ccccn4)CC3)cc3ccccc32)cc1` yielded an RP-LC retention time of 655 s.
`CCc1ccc(S(=O)(=O)N2CCC3(CC2)NCCN=C3NCc2ccc(F)cc2)cc1` displayed an RP-LC retention time of 753 s.
The result for `CCC(NC(=O)C1CCCN(c2cnc3nccnc3c2)C1)c1cccs1` (stereo not given) reads 728 s; that for `O=C(CCN(CC1CCCO1)C(=O)c1ccc(C(F)(F)F)cc1)N1CCNCC1` (stereo not given), 628 s.
`O=C(O)c1ccccc1C(=O)NCC1COc2ccccc2O1` (stereo not given) gave an RP-LC retention time of 708 s.
Regarding `COC(=O)c1cc(OCC(=O)Nc2ccccc2Cl)c2cc(OC)ccc2n1`, the RP-LC retention time was 915 s.
The figure for `Cc1ccc(NC(=O)C2CCN(S(=O)(=O)c3cc(C(=O)N4CCC(C)CC4)n(C)c3)CC2)nc1` is 705 s.
Turning to `CC(C)OCCCNC(=O)C1Cn2cccc2C(=O)N1C` (stereo not given), the RP-LC retention time is 621 s.
The figure for `CC1CCCCN1CCNC(=O)C1CC(=O)N(c2ccc3c(c2)CCN3C(=O)C2CC2)C1` (stereo not given) is 578 s; for `COc1ccc(CNC(=O)CN2CCN(Cc3ccccc3C)C(=O)C2=O)cc1` it is 715 s.
Take `O=C(CN1C(=O)CCCc2cc(S(=O)(=O)N3CCCCC3)ccc21)Nc1ccc(Cl)cc1F`: the RP-LC retention time amounted to 995 s.
Compound `CC(C)n1c(N2CCN(C(=O)c3ccc(F)cc3)CC2)cc(=O)n(C(C)C)c1=O` showed an RP-LC retention time of 792 s.
As for `CCOC(=O)c1cc(S(=O)(=O)N2CCCC2C(=O)Nc2ccccc2)cn1C` (stereo not given), the RP-LC retention time came to 903 s.
The result for `CCOc1cc(C(=O)Nc2ccc(Cl)c(-c3nc4ccccc4[nH]3)c2)cc(OCC)c1OCC` reads 967 s; that for `CCOCCOC(=O)c1cn(-c2ccc(OC)cc2)c(=O)c2ccccc12`, 963 s.
The result for `CCN1C(SCC(=O)N(C)c2ccccc2)=NS(=O)(=O)c2ccccc21` reads 1000 s; that for `Cc1cc(F)ccc1NC(=O)C1CCN(S(=O)(=O)c2ccc3[nH]c(=O)ccc3c2)CC1`, 729 s.
In turn, `Cc1ccc(C)c(NC(=O)N2CCc3nc(-c4ccc(F)cc4)ncc3C2)c1` gave an RP-LC retention time of 987 s.
The result for `CCC1c2nccn2CCCN1C(=O)CCc1c(C)noc1C` (stereo not given) reads 623 s; that for `Fc1ccc(Br)cc1-c1nc2ccc(Cl)cn2c1Nc1ccc2c(c1)OCO2`, 945 s.
The figure for `COc1ccccc1CNC(=O)CN1CCN(Cc2ccc(F)cc2)C1=O` is 778 s.
The result for `COc1ccc(Cc2nnc(C3CCN(C(=O)c4ccc(=O)[nH]c4)CC3)s2)cc1` reads 612 s; that for `COc1cccc(CCC(=O)NCC(=O)Nc2nc3ccccc3[nH]2)c1`, 639 s; that for `COc1ccc(Nc2c(-c3ccc(C)cc3)nc3ncccn23)cc1`, 720 s.
`COc1ccc(-n2ncc3c(=O)n(Cc4nc(-c5ccc(F)cc5)no4)cnc32)cc1` displayed an RP-LC retention time of 1030 s.
As to `Cc1ccc(-c2ocnc2C(=O)Nc2ccc(Br)cc2F)o1`, the RP-LC retention time turned out to be 1290 s.
`Cc1ccc2c(c1)N(CC#N)N=C(C(=O)N1CCC(C)CC1)S2(=O)=O` showed an RP-LC retention time of 842 s.
The figure for `CC(C(=O)NCc1nc2ccccc2[nH]1)n1nc(-c2cccs2)ccc1=O` (stereo not given) is 576 s; for `COc1cc(-c2noc(Cn3ccnc3)n2)cc(OC)c1OC` it is 604 s.
`Cc1cc(NC(=O)C2CCN(C(=O)C3Sc4ccccc4NC3=O)CC2)ccc1Br` (stereo not given) showed an RP-LC retention time of 901 s.
As to `Cc1nn(-c2ccc(Cl)cc2)c(C)c1S(=O)(=O)Nc1ccc(S(N)(=O)=O)cc1`, the RP-LC retention time came to 812 s.
`COc1cc(C2CC(=O)c3c([nH]c(C(=O)OC4CCCCCC4)c3C)C2)cc(OC)c1OC` (stereo not given) had an RP-LC retention time of 1160 s.
The compound `COc1cccc(C(=O)N2CCC(C(=O)NCc3csc(-c4cccs4)n3)CC2)c1` had an RP-LC retention time of 769 s.
The compound `CCc1nc(-c2csc(S(=O)(=O)N3CCCC(C(=O)Nc4cccc(OC)c4)C3)c2)no1` (stereo not given) showed an RP-LC retention time of 1000 s.
The figure for `O=C(NC1CC1)c1n[nH]c2c1CCCCCC2` is 719 s; for `Cc1cccc(-c2noc(-c3nn(-c4ccc(Cl)cc4)ccc3=O)n2)c1` it is 1000 s; for `COc1ccc(OC)c(NC(=O)CN2c3ccc(F)cc3-c3ccccc3S2(=O)=O)c1` it is 1010 s.
The result for `Cc1nn(-c2ccccc2)c(C)c1S(=O)(=O)N1CCC(C(=O)N2CCCC2)CC1` reads 786 s; that for `CN1CCN(CCNC(=O)c2ccc3ccnc(N4CCN(c5ccc(F)cc5)CC4)c3c2)CC1`, 580 s.
`CCOC(=O)c1[nH]c(C)c(CN(Cc2ccco2)C(=O)Nc2ccccc2F)c1C` came in with an RP-LC retention time of 976 s.
The result for `O=C(Nc1ccccc1)c1cc(C2CC2)on1` reads 912 s.
The figure for `Cc1ncc2c(n1)C[C@@H]1CC[C@H]2N1C(=O)COc1ccc(F)cc1` is 675 s; for `CN(C)CCNC(=O)c1ccc(CS(=O)c2ccc(Br)cc2)o1` (stereo not given) it is 590 s; for `Cc1cccc(Cl)c1NC(=O)CSc1ccc(N2CCCC(C(=O)NC3CC3)C2)nn1` (stereo not given) it is 698 s.
As for `CCOC(=O)c1c(NC(=O)CN2CCN(c3ccccn3)CC2)sc(C(N)=O)c1C`, the RP-LC retention time came to 599 s.
`CC(c1ccccc1)N1CC(=O)N(c2ccc(Cl)cc2)[C@@H]2CS(=O)(=O)C[C@@H]21` (stereo not given in full): the RP-LC retention time is 853 s.
The result for `O=C(CN1CCN(Cc2ccccc2)C1=O)NC1CC1` reads 641 s; that for `Cc1ccc(NC(=O)Cn2cnc(C)c(C)c2=O)cc1F`, 630 s; that for `CCCn1cc(C(=O)NCCCOCC)c(S(=O)(=O)N2CCN(c3ccc(Cl)cc3)CC2)n1`, 1080 s.
The result for `O=C(NCC1(c2ccc(F)cc2)CC1)c1ccsc1` reads 821 s; that for `O=C(C1CCCCC1)N1CC(c2nc(-c3ccccc3)no2)C2(CCOCC2)C1` (stereo not given), 963 s; that for `O=C(CN1CCN(c2ccccc2)CC1)Nc1nc(-c2ccccc2)cs1`, 740 s.
The result for `COCCCNc1c(-c2cccc(F)c2)nc2sc(C(=O)N3CCCC3)c(C)n12` reads 824 s; that for `CN1[C@@H]2CC[C@H]1CC(OC(=O)C(CO)c1ccccc1)C2` (stereo not given in full), 613 s.
With `O=C(NC1CCN(C(=O)c2cc(-c3cccs3)[nH]n2)CC1)c1ccccc1Cl`, the RP-LC retention time came to 718 s.
Compound `COc1cccc(NC(=O)Cn2c(C(F)(F)F)nc3cc4c(cc32)OCCO4)c1` returned an RP-LC retention time of 841 s.
